Some test systems named below: NCI-H522 lung; OVCAR-3 ovarian; MDA-MB-231 breast; HCT-15 colon; NCI-H23 lung; SK-MEL-2 melanoma; HOP-62 NSCLC; BT-549 breast; RXF 393 renal; SF-268 CNS.
Holding throughout (assay): DTP human tumour cell line panel, 48 h

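Where inhibition never reached the appropriate level, the endpoint shown equals the highest concentration tested. Otherwise, values were interpolated linearly from a five-concentration, 48-hour dose response in 96-well plates. TGI denotes the concentration required for complete inhibition of growth.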 Some results are limits rather than exact numbers.

What is called TGI is the concentration giving total growth inhibition. With `COC(=O)[C@]1(c2cc3ccccc3n2S(=O)(=O)c2ccccc2)CC2CN(C(=O)OCc3ccccc3)C1C1OC(C)(C)OC21` (stereo partly specified), the TGI in the experiment with NCI-H522 lung, with OVCAR-3 ovarian, with MDA-MB-231 breast, in the experiment with HCT-15 colon, in the experiment with NCI-H23 lung and in the experiment on SK-MEL-2 melanoma was over 100 µM in each case. The TGI in the experiment on HOP-62 NSCLC, with BT-549 breast and in the experiment with RXF 393 renal was over 100 µM each time.

Consider `COc1cc(CCNC2=CC(=O)c3nc[nH]c3C2=O)ccc1O`, for which the total growth inhibition concentration (TGI) in the experiment with NCI-H522 lung was 62.3 µM; with OVCAR-3 ovarian it was 30.5 µM; in the experiment on MDA-MB-231 breast, over 100 µM; in the experiment with HCT-15 colon it was over 100 µM; in the experiment on SF-268 CNS it was over 100 µM; in the experiment on NCI-H23 lung, 48.6 µM. For the same molecule, the concentration for total growth inhibition (TGI) is 52.1 µM in the experiment with SK-MEL-2 melanoma, over 100 µM in the experiment with HOP-62 NSCLC, 42 µM in the experiment with BT-549 breast and over 100 µM in the experiment with RXF 393 renal.

In the case of `Cc1cn(CCCCCCOC(=O)NC(CCCNC(N)=O)C(=O)O)c(=O)[nH]c1=O` (stereo unspecified), the TGI in the experiment on OVCAR-3 ovarian, in the experiment with MDA-MB-231 breast, in the experiment on HCT-15 colon, in the experiment with SF-268 CNS, with NCI-H23 lung and in the experiment with SK-MEL-2 melanoma was over 100 µM throughout. Besides, the TGI in the experiment on HOP-62 NSCLC, in the experiment with BT-549 breast and in the experiment with RXF 393 renal was over 100 µM throughout.

For the molecule `COc1cc2c(cc1O)C1Cc3ccc(OC)c(O)c3C[N+]1(C)CC2` (stereo unspecified), the TGI in the experiment on MDA-MB-231 breast, in the experiment on HCT-15 colon, in the experiment on SF-268 CNS, in the experiment with NCI-H23 lung, in the experiment with SK-MEL-2 melanoma and in the experiment on HOP-62 NSCLC was over 100 µM in each case. Besides, the TGI in the experiment on BT-549 breast and in the experiment on RXF 393 renal was over 100 µM throughout.

On to `CCOC(=O)c1c(N)sc2c1C(C(=O)OCC)CCCC2` (stereo unspecified), for which the total growth inhibition concentration (TGI) with MDA-MB-231 breast, with HCT-15 colon, in the experiment on NCI-H23 lung, in the experiment on SK-MEL-2 melanoma, in the experiment on HOP-62 NSCLC and in the experiment on BT-549 breast was over 100 µM in each case. Also, in the experiment on RXF 393 renal, the TGI was over 100 µM.

For the molecule `COC1CC(C)(NC(=O)C(F)(F)F)C2OC(c3ccccc3)OCC2O1` (stereo unspecified), the total growth inhibition concentration (TGI) with NCI-H522 lung, in the experiment on OVCAR-3 ovarian, in the experiment on MDA-MB-231 breast, in the experiment with HCT-15 colon, in the experiment with SF-268 CNS and in the experiment on NCI-H23 lung was over 100 µM throughout. Besides, the TGI in the experiment on HOP-62 NSCLC, in the experiment with BT-549 breast and in the experiment with RXF 393 renal was over 100 µM in each case.

In the case of `C/C(=N\Nc1nc2ccccc2s1)c1ccncn1`, the TGI in the experiment with NCI-H522 lung was 2.05 µM; in the experiment with MDA-MB-231 breast, over 46.9 µM; in the experiment on HCT-15 colon, 15.9 µM; with SF-268 CNS it was 9.56 µM; in the experiment on NCI-H23 lung, 5.55 µM; with SK-MEL-2 melanoma, 31.8 µM. Besides, the results for the TGI with HOP-62 NSCLC, with BT-549 breast and with RXF 393 renal were over 36.3 µM, 21.4 µM and 24.7 µM, respectively.

As to `O=C(CNc1ccccc1C(=O)O)Nn1cnc2ccc(S(=O)(=O)Nc3ccccc3C(=O)O)cc2c1=O`, the total growth inhibition concentration (TGI) with NCI-H522 lung, with OVCAR-3 ovarian, in the experiment on MDA-MB-231 breast, with HCT-15 colon, with SF-268 CNS and with NCI-H23 lung was over 100 µM throughout. Besides, the TGI in the experiment with SK-MEL-2 melanoma, with HOP-62 NSCLC and with BT-549 breast was over 100 µM throughout.

`O=C1NC(O)c2cc3ccccc3cc2O1` (stereo unspecified): the TGI in the experiment with NCI-H522 lung was over 100 µM; in the experiment on OVCAR-3 ovarian, 88.5 µM; in the experiment on MDA-MB-231 breast, over 100 µM; with HCT-15 colon it was over 100 µM; in the experiment with SF-268 CNS it was over 100 µM; with NCI-H23 lung, over 100 µM. Also, the TGI was over 100 µM in the experiment on HOP-62 NSCLC, 82.1 µM in the experiment on BT-549 breast and over 100 µM in the experiment with RXF 393 renal.

For `N#Cc1c(-c2ccc([N+](=O)[O-])cc2)c(C#N)c(=O)n(NS(=O)(=O)c2ccccc2)c1S`, the concentration for total growth inhibition (TGI) was 42.4 µM in the experiment with NCI-H522 lung; 44.7 µM in the experiment with MDA-MB-231 breast; over 100 µM in the experiment on HCT-15 colon; over 100 µM in the experiment with SF-268 CNS; 60.8 µM in the experiment on SK-MEL-2 melanoma; over 100 µM in the experiment with HOP-62 NSCLC. Further, the TGI in the experiment on BT-549 breast is 39.2 µM; in the experiment on RXF 393 renal, over 100 µM.

Take `O=C1/C(=C/c2ccccc2)Oc2cc(O)ccc21`: the TGI in the experiment on NCI-H522 lung, with OVCAR-3 ovarian, in the experiment on MDA-MB-231 breast, with HCT-15 colon, with SF-268 CNS and in the experiment with NCI-H23 lung was over 100 µM in each case. Further, the TGI with HOP-62 NSCLC, with BT-549 breast and in the experiment on RXF 393 renal was over 100 µM each time.

As for `CC1=C(C)C(=O)C(C2=CC(=O)c3ccccc3C2=O)=C(C2=CC(=O)c3ccccc3C2=O)C1=O`, the concentration for total growth inhibition (TGI) in the experiment on NCI-H522 lung was 17.4 µM; with MDA-MB-231 breast, 13.4 µM; in the experiment on HCT-15 colon, over 100 µM; in the experiment with SF-268 CNS, over 55.1 µM; in the experiment with NCI-H23 lung, 45.5 µM; with SK-MEL-2 melanoma, 24.4 µM. Also, the TGI worked out at 33.4 µM in the experiment with HOP-62 NSCLC, 48.1 µM with BT-549 breast and 22.4 µM in the experiment with RXF 393 renal.

On to `Cc1c(C)c2c(c(N)c1C#N)C(=O)N(N)C2=O`, for which the TGI with NCI-H522 lung, in the experiment with OVCAR-3 ovarian, in the experiment on MDA-MB-231 breast, in the experiment on HCT-15 colon, with SF-268 CNS and with NCI-H23 lung was over 100 µM each time. In addition, the total growth inhibition concentration (TGI) in the experiment on SK-MEL-2 melanoma, in the experiment on BT-549 breast and in the experiment on RXF 393 renal was over 100 µM throughout.

As to `COC(=O)C1=C(CCCCO[Si](C)(C)C(C)(C)C)NC(=O)N2[C@H](CCOCc3ccccc3)CC[C@@H]12`, the total growth inhibition concentration (TGI) with NCI-H522 lung, in the experiment on OVCAR-3 ovarian, in the experiment with MDA-MB-231 breast, in the experiment on HCT-15 colon, in the experiment with SF-268 CNS and in the experiment on NCI-H23 lung was over 100 µM in each case. In addition, the concentration for total growth inhibition (TGI) with SK-MEL-2 melanoma, with HOP-62 NSCLC and in the experiment on BT-549 breast was over 100 µM in each case.

On to `N#Cc1nc(CCc2nc(C#N)c(N)o2)oc1N`, for which the TGI in the experiment with NCI-H522 lung, with MDA-MB-231 breast, with HCT-15 colon, in the experiment with SF-268 CNS, with NCI-H23 lung and in the experiment on HOP-62 NSCLC was over 10 µM each time. The TGI with BT-549 breast and with RXF 393 renal was over 10 µM each time.
